# Patent US20150337013A1, “NOVEL ANTIBACTERIAL AGENTS FOR THE TREATMENT OF GRAM POSITIVE INFECTIONS” (priority 2008, published 2015)
# Where “and” joins values, the source holds several entries; their conditions need not be identical. Equal entries are not always repeated. Where two headings read alike, the source gives them in different places.
# Columns and labels:
# [1] = tested on: Enterococcus faecalis EFS.312, Daptomycin resistant mutant (EFA); assay type: cell-based; settings: MHBc with 50 mg/L calcium, 18-20 hours at 37° C.
# Method: (§1) Compounds according to Formula I were tested for antimicrobial activity against a panel of organisms. Aerobic organisms, Staphylococcus aureus, Enterococcus faecalis and E. faecium, were tested by broth microdilution according to Clinical and Laboratory Standards Institute (CLSI) document M7-A7 (Clinical and Laboratory Standards Institute. Methods for Dilution Antimicrobial Susceptibility Tests for Bacteria that Grow Aerobically; Approved Standard—Seventh Edition. CLSI document M7-A7 [ISBN 1-56238-587-9]. Clinical and Laboratory Standards Institute, 940 West Valley Road, Suite 1400, Wayne, Pa. 19087-1898 USA, 2006) with modifications as described below. Mueller Hinton Broth (MHBc) was supplemented with 50 mg/L calcium (equivalent to human physiological levels of calcium) and assay plates were incubated 18-20 hours at 37° C. with aeration (200 rpm).
# (§2) In all cases the final concentration of dimethyl sulfoxide incubated with cells is less than or equal to 1%. For minimum inhibitory concentration (MIC) calculations, 2-fold dilutions of compounds were added to wells of a microtiter plate containing 5×10^5 bacteria in a final volume of 100 μL of media. Following incubation, (18-20 hours at 37° C. with aeration at 200 rpm) growth was confirmed visually by placing plates over a viewing apparatus (stand with a mirror underneath) and then the optical density (OD600) was measured using a SpectraMax 340PC^384 plate reader. Growth was defined as turbidity that could be detected with the naked eye or achieving minimum OD600of 0.1. MIC values (in μg/mL) were defined as the lowest concentration producing no visible turbidity.
# [2] = tested on: Enterococcus faecium EFM.14 (ATCC 6569); assay type: cell-based
# Method: as §1, §2
# [3] = tested on: Enterococcus faecium EFM.384, Daptomycin resistant mutant (14-A); assay type: cell-based; settings: MHBc with 50 mg/L calcium, 18-20 hours at 37° C.
# Method: as §1, §2
# [4] = tested on: Staphylococcus aureus SAU.278, Daptomycin resistant mutant (D10); assay type: cell-based; settings: MHBc with 50 mg/L calcium, 18-20 hours at 37° C.
# Method: as §1, §2
# [5] = tested on: Staphylococcus aureus SAU.399 (ATCC 43300), Methicillin and Oxacillin Resistant; assay type: cell-based; settings: ATCC 43300
# Method: as §1, §2
# [6] = tested on: Enterococcus faecalis EFS.201 (ATCC 49452); assay type: cell-based
# Method: as §1, §2
# [7] = MHBc with 50 mg/L calcium, 18-20 hours at 37° C.
SMILES,Efs312 MIC [1],Efm14 MIC ([2]; ATCC 6569),Efm384 MIC [3],Sa278 MIC [4],Sa399 MIC [5],C. diff MIC90 (Clostridium difficile),Efs201 MIC ([6]; ATCC 49452),"Efs201 MIC [6, 7]","Efm14 MIC [2, 7]"
CCCCCCC1CCC(C(=O)N[C@@H](Cc2c[nH]c3ccccc23)C(=O)N[C@H](CC(N)=O)C(=O)N[C@@H](CC(=O)O)C(=O)N[C@@H]2C(=O)NCC(=O)N[C@@H](CCCN)C(=O)N[C@@H](CC(=O)O)C(=O)N[C@H](C)C(=O)N[C@@H](CC(=O)O)C(=O)NCC(=O)N[C@H](CO)C(=O)N[C@@H]([C@H](C)CC(=O)O)C(=O)N[C@@H](CC(=O)c3ccccc3N)C(=O)O[C@@H]2C)CC1 (some centres unmarked) [Compound 18],32 µg/mL and 16 µg/mL,2 µg/mL,8 µg/mL,4 µg/mL and 2 µg/mL,1 µg/mL,0.5 µg/mL,–,–,–
CCCCCCSc1ccc(-c2csc(C(=O)N[C@@H](Cc3c[nH]c4ccccc34)C(=O)N[C@H](CC(N)=O)C(=O)N[C@@H](CC(=O)O)C(=O)N[C@@H]3C(=O)NCC(=O)N[C@@H](CCCN)C(=O)N[C@@H](CC(=O)O)C(=O)N[C@H](C)C(=O)N[C@@H](CC(=O)O)C(=O)NCC(=O)N[C@H](CO)C(=O)N[C@@H]([C@H](C)CC(=O)O)C(=O)N[C@@H](CC(=O)c4ccccc4N)C(=O)O[C@@H]3C)c2)cc1 [Compound 57],–,–,–,2 µg/mL and 4 µg/mL,–,8 µg/mL,–,–,–
"CC(C)c1ccc(CCCC(=O)N[C@@H](Cc2c[nH]c3ccccc23)C(=O)N[C@H](CC(N)=O)C(=O)N[C@@H](CC(=O)O)C(=O)N[C@@H]2C(=O)NCC(=O)N[C@@H](CCCN)C(=O)N[C@@H](CC(=O)O)C(=O)N[C@H](C)C(=O)N[C@@H](CC(=O)O)C(=O)NCC(=O)N[C@H](CO)C(=O)N[C@@H]([C@H](C)CC(=O)O)C(=O)N[C@@H](CC(=O)c3ccccc3N)C(=O)O[C@@H]2C)cc1 [Compound 30, N-[4-(4-isopropylphenyl)butanoyl]-L-tryptophyl-D-asparaginyl-L-α-aspartyl-L-threonylglycyl-L-ornithyl-L-α-aspartyl-D-alanyl-L-α-aspartylglycyl-D-seryl-(3R)-3-methyl-L-α-glutamyl-(αS)-α,2-diamino-γ-oxobenzenebutanoic acid (13→4)-lactone]",>32 µg/mL,–,>32 µg/mL,32 µg/mL,–,8 µg/mL,8 µg/mL,–,–
CCCCCCc1ccc(C(=O)N[C@@H](Cc2c[nH]c3ccccc23)C(=O)N[C@H](CC(N)=O)C(=O)N[C@@H](CC(=O)O)C(=O)N[C@@H]2C(=O)NCC(=O)N[C@@H](CCCN)C(=O)N[C@@H](CC(=O)O)C(=O)N[C@H](C)C(=O)N[C@@H](CC(=O)O)C(=O)NCC(=O)N[C@H](CO)C(=O)N[C@@H]([C@H](C)CC(=O)O)C(=O)N[C@@H](CC(=O)c3ccccc3N)C(=O)O[C@@H]2C)cc1 [Compound 32],>32 µg/mL and 32 µg/mL,–,–,–,–,–,–,–,–
CCCCCCCC/C=C/CC(=O)N[C@@H](Cc1c[nH]c2ccccc12)C(=O)N[C@H](CC(N)=O)C(=O)N[C@@H](CC(=O)O)C(=O)N[C@@H]1C(=O)NCC(=O)N[C@@H](CCCN)C(=O)N[C@@H](CC(=O)O)C(=O)N[C@H](C)C(=O)N[C@@H](CC(=O)O)C(=O)NCC(=O)N[C@H](CO)C(=O)N[C@@H]([C@H](C)CC(=O)O)C(=O)N[C@@H](CC(=O)c2ccccc2N)C(=O)O[C@@H]1C [Compound 4],32 µg/mL and 16 µg/mL,–,8 µg/mL and 4 µg/mL,–,–,–,–,–,–
"CCCC1CCC(c2ccc(C(=O)N[C@@H](Cc3c[nH]c4ccccc34)C(=O)N[C@H](CC(N)=O)C(=O)N[C@@H](CC(=O)O)C(=O)N[C@@H]3C(=O)NCC(=O)N[C@@H](CCCN)C(=O)N[C@@H](CC(=O)O)C(=O)N[C@H](C)C(=O)N[C@@H](CC(=O)O)C(=O)NCC(=O)N[C@H](CO)C(=O)N[C@@H]([C@H](C)CC(=O)O)C(=O)N[C@@H](CC(=O)c4ccccc4N)C(=O)O[C@@H]3C)cc2)CC1 (single isomer, unassigned) [53 isomer I]",2 µg/mL,0.25 µg/mL,2 µg/mL and 1 µg/mL,0.25 µg/mL and 0.5 µg/mL,0.125 µg/mL,1 µg/mL,–,–,–
CCCCCCCC1CCC(C(=O)N[C@@H](Cc2c[nH]c3ccccc23)C(=O)N[C@H](CC(N)=O)C(=O)N[C@@H](CC(=O)O)C(=O)N[C@@H]2C(=O)NCC(=O)N[C@@H](CCCN)C(=O)N[C@@H](CC(=O)O)C(=O)N[C@H](C)C(=O)N[C@@H](CC(=O)O)C(=O)NCC(=O)N[C@H](CO)C(=O)N[C@@H]([C@H](C)CC(=O)O)C(=O)N[C@@H](CC(=O)c3ccccc3N)C(=O)O[C@@H]2C)CC1 (some centres unmarked) [Compound 19],–,–,–,–,–,0.250 µg/mL,–,–,–
"CCCCCCOc1ccc(-c2csc(C(=O)N[C@@H](Cc3c[nH]c4ccccc34)C(=O)N[C@H](CC(N)=O)C(=O)N[C@@H](CC(=O)O)C(=O)N[C@@H]3C(=O)NCC(=O)N[C@@H](CCCN)C(=O)N[C@@H](CC(=O)O)C(=O)N[C@H](C)C(=O)N[C@@H](CC(=O)O)C(=O)NCC(=O)N[C@H](CO)C(=O)N[C@@H]([C@H](C)CC(=O)O)C(=O)N[C@@H](CC(=O)c4ccccc4N)C(=O)O[C@@H]3C)c2)cc1 [Compound 58, N-[4-(4-(hexyloxy)phenyl)thiophene-2-carbonyl]-L-tryptophyl-D-asparaginyl-L-α-aspartyl-L-threonylglycyl-L-ornithyl-L-α-aspartyl-D-alanyl-L-α-aspartylglycyl-D-seryl-(3R)-3-methyl-L-α-glutamyl-(αS)-α,2-diamino-γ-oxobenzenebutanoic acid (13→4)-lactone]",–,–,–,0.5 µg/mL and 1 µg/mL,–,4 µg/mL,–,–,–
C[C@H](CC(=O)O)[C@@H]1NC(=O)[C@@H](CO)NC(=O)CNC(=O)[C@H](CC(=O)O)NC(=O)[C@@H](C)NC(=O)[C@H](CC(=O)O)NC(=O)[C@H](CCCN)NC(=O)CNC(=O)[C@@H](NC(=O)[C@H](CC(=O)O)NC(=O)[C@@H](CC(N)=O)NC(=O)[C@H](Cc2c[nH]c3ccccc23)NC(=O)CCCCCc2ccccc2)[C@@H](C)OC(=O)[C@H](CC(=O)c2ccccc2N)NC1=O [Compound 46],>32 µg/mL,>32 µg/mL,>32 µg/mL,>32 µg/mL,–,16 µg/mL,>32 µg/mL,–,–
CCCCCCC(CCCC)C(=O)N[C@@H](Cc1c[nH]c2ccccc12)C(=O)N[C@H](CC(N)=O)C(=O)N[C@@H](CC(=O)O)C(=O)N[C@@H]1C(=O)NCC(=O)N[C@@H](CCCN)C(=O)N[C@@H](CC(=O)O)C(=O)N[C@H](C)C(=O)N[C@@H](CC(=O)O)C(=O)NCC(=O)N[C@H](CO)C(=O)N[C@@H]([C@H](C)CC(=O)O)C(=O)N[C@@H](CC(=O)c2ccccc2N)C(=O)O[C@@H]1C (some centres unmarked) [Compound 8],>32 µg/mL,–,32 µg/mL and >32 µg/mL,–,–,8 µg/mL,–,–,–
"CCCCCCC1CCC(c2ccc(C(=O)N[C@@H](Cc3c[nH]c4ccccc34)C(=O)N[C@H](CC(N)=O)C(=O)N[C@@H](CC(=O)O)C(=O)N[C@@H]3C(=O)NCC(=O)N[C@@H](CCCN)C(=O)N[C@@H](CC(=O)O)C(=O)N[C@H](C)C(=O)N[C@@H](CC(=O)O)C(=O)NCC(=O)N[C@H](CO)C(=O)N[C@@H]([C@H](C)CC(=O)O)C(=O)N[C@@H](CC(=O)c4ccccc4N)C(=O)O[C@@H]3C)cc2)CC1 (single isomer, unassigned) [54 isomer I]",–,–,–,–,–,4 µg/mL,–,–,–
C[C@H](CC(=O)O)[C@@H]1NC(=O)[C@@H](CO)NC(=O)CNC(=O)[C@H](CC(=O)O)NC(=O)[C@@H](C)NC(=O)[C@H](CC(=O)O)NC(=O)[C@H](CCCN)NC(=O)CNC(=O)[C@@H](NC(=O)[C@H](CC(=O)O)NC(=O)[C@@H](CC(N)=O)NC(=O)[C@H](Cc2c[nH]c3ccccc23)NC(=O)CCCCCCc2ccccc2)[C@@H](C)OC(=O)[C@H](CC(=O)c2ccccc2N)NC1=O [Compound 47],>32 µg/mL,>32 µg/mL,>32 µg/mL,>32 µg/mL,16 µg/mL,8 µg/mL,–,–,–
CCCCCCOc1ccc(-c2ccc(C(=O)N[C@@H](Cc3c[nH]c4ccccc34)C(=O)N[C@H](CC(N)=O)C(=O)N[C@@H](CC(=O)O)C(=O)N[C@@H]3C(=O)NCC(=O)N[C@@H](CCCN)C(=O)N[C@@H](CC(=O)O)C(=O)N[C@H](C)C(=O)N[C@@H](CC(=O)O)C(=O)NCC(=O)N[C@H](CO)C(=O)N[C@@H]([C@H](C)CC(=O)O)C(=O)N[C@@H](CC(=O)c4ccccc4N)C(=O)O[C@@H]3C)cc2)cc1 [Compound 62],2 µg/mL and 4 µg/mL,–,1 µg/mL,0.5 µg/mL,–,2 µg/mL,–,0.25 µg/mL,0.5 µg/mL
